Consider 15 compounds from patent US8759318B2, “Phosphoramidate derivatives of guanosine nucleoside compounds for treatment of viral infections” (Inhibitex, Inc., priority 2009, dated 2014).

By IC50 is commonly meant the concentration at which inhibition is half-maximal.

Structures are written as SMILES.

In data set [1] the test system is HCV replicon (Genotype 1b). As to the kind of experiment: Luciferase genotype 1b replicon potency assay. As to conditions: Hepatitis C virus, GETYPE1B, read-out: IC50 μM, HCV genotype 1b luciferase replicon, Renilla luciferase reporter. (A replicon is a self-replicating genome or part of one, used to study replication in cells.)
The next data set can be described thus: in vitro. The following applies: human.

Turning to `COC(=O)[C@@H](C)c1ccc2cc(OP(=O)(N[C@@H](C)C(=O)OCC(C)(C)C)OC[C@H]3OC(n4cnc5c(OC)nc(N)nc54)[C@](C)(O)[C@@H]3O)ccc2c1` (stereo partly drawn) [Example 28, (2S)-methyl 2-(6-((((2R,3R,4R)-5-(2-amino-6-methoxy-9H-purin-9-yl)-3,4-dihydroxy-4-methyltetrahydrofuran-2-yl)methoxy)((S)-1-(neopentyloxy)-1-oxopropan-2-ylamino)phosphoryloxy)naphthalen-2-yl)propanoate], the IC50 in data set [1] was 0.023 µM. For the same compound, the CC50 in the data set “in vitro” came to 19000 nM.
Turning to `COC(=O)[C@@H](C)c1ccc2cc(OP(=O)(N[C@@H](C)C(=O)OC3CCOCC3)OC[C@H]3OC(n4cnc5c(OC)nc(N)nc54)[C@](C)(O)[C@@H]3O)ccc2c1` (stereo partly drawn) [Example 29, (2S)-methyl 2-(6-((((2R,3R,4R)-5-(2-amino-6-methoxy-9H-purin-9-yl)-3,4-dihydroxy-4-methyltetrahydrofuran-2-yl)methoxy)((S)-1-oxo-1-(tetrahydro-2H-pyran-4-yloxy)propan-2-ylamino)phosphoryloxy)naphthalen-2-yl)propanoate], in data set [1], the IC50 is 0.11 µM. In addition, the CC50 in the data set “in vitro” was > 100000 nM.
As to `COc1nc(N)nc2c1ncn2C1O[C@H](COP(=O)(N[C@@H](C)C(=O)OCc2ccc(F)cc2F)Oc2cccc3ncccc23)[C@@H](O)[C@@]1(C)O` (stereo partly drawn) [Example 30, (2S)-2,4-difluorobenzyl 2-((((2R,3R,4R)-5-(2-amino-6-methoxy-9H-purin-9-yl)-3,4-dihydroxy-4-methyltetrahydrofuran-2-yl)methoxy)(quinolin-5-yloxy)phosphorylamino)propanoate], the half-inhibitory concentration (IC50) in data set [1] is 0.13 µM. The compound also came in with a CC50 in “in vitro” of 110000 nM.
Taken in the same sequence, the figures for `COc1nc(N)nc2c1ncn2C1O[C@H](COP(=O)(N[C@@H](C)C(=O)OCC(C)(C)C)Oc2cccc3ncccc23)[C@@H](O)[C@@]1(C)O` (stereo partly drawn) [Example 31, (2S)-neopentyl 2-((((2R,3R,4R)-5-(2-amino-6-methoxy-9H-purin-9-yl)-3,4-dihydroxy-4-methyltetrahydrofuran-2-yl)methoxy)(quinolin-5-yloxy)phosphorylamino)propanoate] were 0.19 µM and > 100000 nM.
Consider `COc1nc(N)nc2c1ncn2C1O[C@H](COP(=O)(N[C@@H](C)C(=O)OC2CCOCC2)Oc2cccc3ncccc23)[C@@H](O)[C@@]1(C)O` (stereo partly drawn) [Example 32, (2S)-tetrahydro-2H-pyran-4-yl 2-((((2R,3R,4R)-5-(2-amino-6-methoxy-9H-purin-9-yl)-3,4-dihydroxy-4-methyltetrahydrofuran-2-yl)methoxy)(quinolin-5-yloxy)phosphorylamino)propanoate], for which the IC50 in data set [1] is 1.2 µM. In addition, in “in vitro”, the CC50 is > 100000 nM.
Turning to `COc1nc(N)nc2c1ncn2C1O[C@H](COP(=O)(N[C@@H](C)C(=O)OCC(C)(C)C)Oc2ccc3ncccc3c2)[C@@H](O)[C@@]1(C)O` (stereo partly drawn) [Example 33, (2S)-neopentyl 2-((((2R,3R,4R)-5-(2-amino-6-methoxy-9H-purin-9-yl)-3,4-dihydroxy-4-methyltetrahydrofuran-2-yl)methoxy)(quinolin-6-yloxy)phosphorylamino)propanoate], in data set [1], the 50% inhibitory concentration (IC50) is 0.26 µM. The CC50 in “in vitro” was > 100000 nM.
In the case of `COc1nc(N)nc2c1ncn2C1O[C@H](COP(=O)(N[C@@H](C)C(=O)OC2CCOCC2)Oc2ccc3ncccc3c2)[C@@H](O)[C@@]1(C)O` (stereo partly drawn) [Example 34, (2S)-tetrahydro-2H-pyran-4-yl 2-((((2R,3R,4R)-5-(2-amino-6-methoxy-9H-purin-9-yl)-3,4-dihydroxy-4-methyltetrahydrofuran-2-yl)methoxy)(quinolin-6-yloxy)phosphorylamino)propanoate], the IC50 in data set [1] was found to be 1.1 µM. Besides, the CC50 in the data set “in vitro” was > 100000 nM.
Regarding `COc1nc(N)nc2c1ncn2C1O[C@H](COP(=O)(N[C@@H](C)C(=O)OCC(C)(C)C)Oc2ccccc2)[C@@H](O)[C@@]1(C)O` (stereo partly drawn) [Example 35, (2S)-neopentyl 2-((((2R,3R,4R)-5-(2-amino-6-methoxy-9H-purin-9-yl)-3,4-dihydroxy-4-methyltetrahydrofuran-2-yl)methoxy)(phenoxy)phosphorylamino)propanoate], in data set [1], the IC50 turned out to be 0.049 µM. In addition, in “in vitro”, the CC50 turned out to be 38000 nM.
Consider `COc1nc(N)nc2c1ncn2C1O[C@H](COP(=O)(N[C@H](C(=O)OCc2ccc(F)cc2F)C(C)C)Oc2cccc3ccccc23)[C@@H](O)[C@@]1(C)O` (stereo partly drawn) [Example 37], for which the half-inhibitory concentration (IC50) in data set [1] worked out at 0.043 µM. The CC50 in “in vitro” turned out to be 16000 nM.
For the compound `COc1nc(N)nc2c1ncn2C1O[C@H](COP(=O)(N[C@H](C(=O)O[C@@H](C)c2ccc(Br)cc2)C(C)C)Oc2cccc3ccccc23)[C@@H](O)[C@@]1(C)O` (stereo partly drawn) [Example 39, (2S)-((S)-1-(4-bromophenyl)ethyl) 2-((((2R,3R,4R)-5-(2-amino-6-methoxy-9H-purin-9-yl)-3,4-dihydroxy-4-methyltetrahydrofuran-2-yl)methoxy)(naphthalen-1-yloxy)phosphorylamino)-3-methylbutanoate], the IC50 in data set [1] is 2.2 µM. The CC50 in “in vitro” was determined as 900 nM.
In the case of `COc1nc(N)nc2c1ncn2C1O[C@H](COP(=O)(N[C@H](C(=O)O[C@@H](C)c2ccccc2Br)C(C)C)Oc2cccc3ccccc23)[C@@H](O)[C@@]1(C)O` (stereo partly drawn) [Example 40, (2S)-((S)-1-(2-bromophenyl)ethyl) 2-((((2R,3R,4R)-5-(2-amino-6-methoxy-9H-purin-9-yl)-3,4-dihydroxy-4-methyltetrahydrofuran-2-yl)methoxy)(naphthalen-1-yloxy)phosphorylamino)-3-methylbutanoate], the IC50 in data set [1] came out at 2.9 µM. The CC50 in “in vitro” was 44000 nM.
Consider `COC(=O)[C@@H](NP(=O)(OC[C@H]1OC(n2cnc3c(OC)nc(N)nc32)[C@](C)(O)[C@@H]1O)Oc1cccc2ccccc12)C(C)C` (stereo partly drawn) [Example 41, (2S)-methyl 2-((((2R,3R,4R)-5-(2-amino-6-methoxy-9H-purin-9-yl)-3,4-dihydroxy-4-methyltetrahydrofuran-2-yl)methoxy)(naphthalen-1-yloxy)phosphorylamino)-3-methylbutanoate], for which the IC50 in data set [1] worked out at 0.38 µM. In addition, in the data set “in vitro”, the CC50 turned out to be 22000 nM.
Take `COc1nc(N)nc2c1ncn2C1O[C@H](COP(=O)(N[C@H](C(=O)OCC2CC2)C(C)C)Oc2cccc3ccccc23)[C@@H](O)[C@@]1(C)O` (stereo partly drawn) [Example 43, (2S)-cyclopropylmethyl 2-((((2R,3R,4R)-5-(2-amino-6-methoxy-9H-purin-9-yl)-3,4-dihydroxy-4-methyltetrahydrofuran-2-yl)methoxy) (naphthalen-1-yloxy)phosphorylamino)-3-methylbutanoate]: the IC50 in data set [1] is 0.18 µM. For the same compound, in “in vitro”, the CC50 came out at 6000 nM.
The like results for `COc1nc(N)nc2c1ncn2C1O[C@H](COP(=O)(N[C@H](C(=O)OC2CCC2)C(C)C)Oc2cccc3ccccc23)[C@@H](O)[C@@]1(C)O` (stereo partly drawn) [Example 44, (2S)-cyclobutyl 2-((((2R,3R,4R)-5-(2-amino-6-methoxy-9H-purin-9-yl)-3,4-dihydroxy-4-methyltetrahydrofuran-2-yl)methoxy)(naphthalen-1-yloxy)phosphorylamino)-3-methylbutanoate] were, in that order, 0.39 µM and 64000 nM.
In the case of `COc1nc(N)nc2c1ncn2C1O[C@H](COP(=O)(N[C@H](C(=O)OC2CCCC2)C(C)C)Oc2cccc3ccccc23)[C@@H](O)[C@@]1(C)O` (stereo partly drawn) [Example 45], in data set [1], the IC50 was found to be 0.33 µM. In addition, the CC50 in the data set “in vitro” stood at 56000 nM.
